Calls of active or inactive are those of the source. The calls are words filed in the database; no cut-off is given here.
Tested on: RAW264.7
Assay: Antiinflammatory activity against mouse RAW264.7 cells assessed as inhibition of LPS-induced NO production preincubated for 3 hrs followed by LPS-stimulation and measured after 24 hrs by Griess reagent based assay
Assay type: functional, cell-based

## O=c1ccoc(Cc2ccccc2)c1
  Activity: inactive

Source: ChEMBL document CHEMBL4610081, “Anti-inflammatory Metabolites from Chaetomium nigricolor” (J Nat Prod, 2020)
